Measured values: patent US20160362433A1, “ETHER COMPOUNDS FOR TREATMENT OF COMPLEMENT MEDIATED DISORDERS” (Achillion Pharmaceuticals, Inc., priority 2014, published 2016)

Molecular target: T1, Human factor D (Homo sapiens, UniProt P00746)
T1 construct: Human factor D (purified from human serum, Complement Technology, Inc.); purchased Complement Technology, Inc; host or cells: human serum
Assay: Human Factor D Assay
Assay type: biochemical
Details: Human factor D 80 nM, substrate Z-L-Lys-SBzl, DTNB
Experimental: The assay of Example 8 was used to determine the IC50's of the compounds. Other standard factor D inhibition assays are also available.
Human factor D (purified from human serum, Complement Technology, Inc.) at 80 nM final concentration is incubated with test compound at various concentrations for 5 minutes at room temperature in 50 mM Tris, 1M NaCl, pH 7.5. A synthetic substrate Z-L-Lys-SBzl and DTNB (Ellman's reagent) are added to final concentrations of 100 μM each. The increase in color is recorded at OD405 nm in a microplate in kinetic mode over 30 minutes with 30 second time points in a spectrofluorimeter. IC50 values are calculated by non-linear regression from the percentage of inhibition of complement factor D activity as a function of test compound concentration.

T1 sequence (P00746 26-253): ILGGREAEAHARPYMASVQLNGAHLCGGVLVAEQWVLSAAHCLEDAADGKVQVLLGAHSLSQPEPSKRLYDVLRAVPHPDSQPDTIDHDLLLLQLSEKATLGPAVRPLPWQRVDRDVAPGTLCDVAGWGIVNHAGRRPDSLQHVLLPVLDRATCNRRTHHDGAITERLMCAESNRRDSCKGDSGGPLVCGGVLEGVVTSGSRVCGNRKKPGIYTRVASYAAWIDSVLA

CC(=O)c1cn(CC(=O)N2C[C@H](F)C[C@H]2C(=O)NCc2cccc(Cl)c2F)c2cc(OCc3cc4ccc3CCc3ccc(cc3)CC4)ccc12 [Compound 6, (2S,4R)-1-(2-(3-acetyl-6-((tricyclo[8.2.2.2^4,7]hexadeca-4,6,10,12,13,15-hexaen-5-ylmethyl)oxy)-1H-indol-1-yl)acetyl)-N-(3-chloro-2-fluorobenzyl)-4-fluoropyrrolidine-2-carboxamide]
IC50: 1 to 10 µM
